Results from US20080175889A1, “METHOD AND COMPOSITION FOR COATING WOUNDS AND PROTECTING SKIN USING A POLYETHER POLYURETHANE SOLUTION” (priority 2007, published 2008).

Tests used:
animal's tissue = conditions: solvent alone or containing dissolved PEPU polymer; compared to THF
[1] = cited from earlier work
rat = conditions: cited from earlier work
[2] = TWA; cited from earlier work
[3] = published literature; cited from earlier work

Compound	penetration into an animal's tissue after applying the solvent onto the skin (animal's tissue)	amount of solvent that can dissolve in water [1]	amount of water that can dissolve in the solvent ([1]; water in solvent)	LD-50 (rat; rat model, reported for both skin contact and inhalation)	OSHA Permissible Exposure Limit and NIOSH Recommended Exposure limit [2]	LD-50 (rats) (rat; rats)	carcinogenicity / teratogenicity [3]	genotoxicity [3]	skin irritation [3]
CC1CCCO1 (stereo not shown) [2-MeOX, 2-methyloxolane]	much less 2-MeOX compared to THF solvent can penetrate	approximately 14 % by weight	4%	approximately 6 g/kg	–	–	–	–	–
C1CCOC1 [THF, tetrahydrofuran]	–	miscible, in all proportions	–	–	200 ppm	890 mg/kg	not considered a carcinogen or a teratogen	nor is it genotoxic	skin irritant
